# Assay results as given in US8617872B2, “Compositions for culturing spirochetes” (priority 2000, dated 2013).
# What was measured:
# Treponema isolate = assay: Antimicrobial susceptibility test (MICROSCAN plates) of a patient's Treponema isolate; type: cell-based; conditions: for RESULT (antibiotic susceptibility): Treponema infected patient's isolate, MICROSCAN plates, 35° C., 16-20 hours; for susceptibility profile from a specific human patient: text restating Example 7
# Protocol: For susceptibility testing, the organisms harvested could be assayed using any suitable susceptibility assay (See, Example 7). In some embodiments of the present invention, MICROSCAN antibiotic susceptibility plates were inoculated and incubated. Following incubations, plates were scanned for growth and respective sensitivity reaction. […] For the results to be considered reliable, the no growth of organisms was accepted in the negative control well, while the positive control well had to have sufficient growth to be read. In some embodiments of the present invention, to confirm the presence or absence of growing spirochetes in the growth well, aliquots from the growth well were reinoculated with fresh growth media and after an incubation time (e.g., 7-10 days) the presence of the organisms was confirmed (e.g., by phase contrast microscopy or direct fluorescent antibody staining).
# (§1) This example describes the preparation of a pellet used for antimicrobial susceptibility testing of a culture sample. The procedure begins with a culture (e.g., prepared in the manner described in Example 2), where serum from a patient is inoculated in GSI-1 media and allowed to grow. In order to form pellet, an aliquot of this culture sample is placed in a microcentrifuge tube along with 10% SDS solution, and centrifuged at 14,000 g to disrupt the spirochetes and maximize the number of available eptiopic sites. The disrupted spirochetes were then cultured in an alternative growth medium made up of one part GSI-1 medium, one part 6.5% lactalbumin hydrolysate, one part 2% brain heart infusion, one part 10% pluronic fluid, and one part of the isolated (disrupted) spirochetes. This inoculated alternative growth medium was then allowed to incubate in the closed micro centrifuge tube until a distinctive pellet was observed (typically 7-14 days).
# This example describes an antimicrobial susceptibility test performed for a human patient. The patient had previously been testing using GSI-1 medium (e.g., as described in Example 2) for the presence of any spirochetes. […] This culture sample was then transferred to a microcentrifuge tube, and a pellet for antimicrobial susceptibility testing was prepared as described in Example 6.
# (§2) Following the observation of pellet formation, the tube was vortexed and incubated at 35° C. until a MacFarlane standard of between 8 to 12% turbidity was achieved. MICROSCAN antibiotic susceptibility microtiter plates were then inoculated with (e.g., 110 μl of) inoculum and allowed to incubate at 35° C. for 16-20 hours. The microtiter plates were then scanned for growth and respective sensitivity reaction (both the control well and the growth well). Table 2 below lists the various antimicrobials tested with this sample and whether growth of the organism was inhibited (susceptible) or whether the growth of the organism was not inhibited (resistant).
# E. coli = assay: Antibiotic susceptibility test (MICROSCAN or disc diffusion), control organism E. coli; type: cell-based; conditions: total isolates 1
# Tatumella = assay: Antibiotic susceptibility test (MICROSCAN or disc diffusion), control organism Tatumella; type: cell-based; conditions: total isolates 2
# Text: as §1, §2
# (§3) This Example describes the results for susceptibility tests that were performed on a large number of patient samples positive for either Borrelia or Leptospira. […] The results presented in Table 3 reveal the varied response of different types of spirochetes to different antibiotics.
# Y. entero gp. = assay: Antibiotic susceptibility test (MICROSCAN or disc diffusion), control organism Y. entero gp.; type: cell-based; conditions: total isolates 1
# Borrelia = assay: Antibiotic susceptibility test (MICROSCAN or disc diffusion) of patient samples positive for Borrelia; type: cell-based; conditions: total isolates 519
# Text: as §1, §2, §3
# Leptospira [1] = assay: Antibiotic susceptibility test (MICROSCAN or disc diffusion) of patient samples positive for Leptospira; type: cell-based; conditions: total isolates 276
# Text: as §1, §2, §3
# A. lwoffii = assay: Antibiotic susceptibility test (MICROSCAN or disc diffusion), control organism A. lwoffii; type: cell-based; conditions: total isolates 1
# Pseudomonas = assay: Antibiotic susceptibility test (MICROSCAN or disc diffusion), control organism Pseudomonas; type: cell-based; conditions: total isolates 1
# Leptospira [2] = assay: Susceptibility testing of Leptospira isolated from a patient with symptoms of multiple sclerosis; type: cell-based; conditions: for Antibiotic Susceptibility Results, SERUM: Leptospira culture from serum of multiple sclerosis patient; for Antibiotic Susceptibility Results, URINE: Leptospira culture from urine of multiple sclerosis patient
# Protocol: This example describes the preparation of a pellet used for antimicrobial susceptibility testing of a culture sample. […] In order to form pellet, an aliquot of this culture sample is placed in a microcentrifuge tube along with 10% SDS solution, and centrifuged at 14,000 g to disrupt the spirochetes and maximize the number of available eptiopic sites. […] This inoculated alternative growth medium was then allowed to incubate in the closed micro centrifuge tube until a distinctive pellet was observed (typically 7-14 days).
# MICROSCAN antibiotic susceptibility microtiter plates were then inoculated with (e.g., 110 μl of) inoculum and allowed to incubate at 35° C. for 16-20 hours. The microtiter plates were then scanned for growth and respective sensitivity reaction (both the control well and the growth well).
# Leptospira [3] = assay: Susceptibility testing of Leptospira isolated from a patient with symptoms of rheumatoid arthritis; type: cell-based; conditions: for Antibiotic Susceptibility Results, SERUM: Leptospira culture from serum of rheumatoid arthritis patient; for Antibiotic Susceptibility Results, URINE: Leptospira culture from urine of rheumatoid arthritis patient
# Text: as §1
# as §2, with “well).” for “well). Table 2 below lists the various antimicrobials tested with this sample and whether growth of the organism was inhibited (susceptible) or whether the growth of the organism was not inhibited (resistant).”
# This Example describes the diagnosis and treatment of a human patient with symptoms of rheumatoid arthritis. In particular, serum and urine samples from this patient were initially cultured on GSI-1 (e.g., as described in Example 2), and screened for the presence of spirochetes (e.g., as described in Example 3). […] These cultures were then used to produce pellets for antimicrobial susceptibility testing (e.g., as described in Example 6). The antimicrobial susceptibility tests were then carried out on each sample (e.g., as described in Example 7) with the antimicrobials listed below in Table 5.
# Borrelia and Leptospira = assay: Susceptibility of several hundred patient samples having Borrelia and Leptospira infections (population effectiveness); type: cell-based
# Protocol: In these experiments, several hundred patient samples were cultured on GSI-1 (e.g., as described in Example 2). These culture samples were then used to produce pellets for antimicrobial susceptibility testing as described in Example 6. The antimicrobial susceptibility tests were then carried out on each sample as described in Example 7 or by the disc diffusion method (e.g., instead of MICROSCAN) with the antimicrobials listed below in Table 3.
# [4] = tested on: Borrelia burgdorferi infection in a human patient; assay: Treatment of a human patient with Borrelia burgdorferi infection; type: in vivo; conditions: human patient with neurological distress, Borrelia burgdorferi positive
Compound,RESULT (antibiotic susceptibility) (Treponema isolate),susceptibility profile from a specific human patient (Treponema isolate),"Antibiotic Susceptibility Test Results, E. coli (E. coli) [%]","Antibiotic Susceptibility Test Results, Tatumella (Tatumella) [%]","Antibiotic Susceptibility Test Results, Y. entero gp. (Y. entero gp.) [%]","Antibiotic Susceptibility Test Results, Borrelia (Borrelia) [%]","Antibiotic Susceptibility Test Results, Leptospira (Leptospira [1]) [%]","Antibiotic Susceptibility Test Results, A. lwoffii (A. lwoffii) [%]","Antibiotic Susceptibility Test Results, Pseudomonas (Pseudomonas) [%]","Antibiotic Susceptibility Results, SERUM (Leptospira [2])","Antibiotic Susceptibility Results, URINE (Leptospira [2])","Antibiotic Susceptibility Results, SERUM (Leptospira [3])","Antibiotic Susceptibility Results, URINE (Leptospira [3])",effectiveness in the population (Borrelia and Leptospira),patient response to treatment [4]
C[C@H]1[C@H](NC(=O)/C(=N\OC(C)(C)C(=O)O)c2csc(N)n2)C(=O)N1S(=O)(=O)O [Aztreonam],Susceptible,sensitive,100,0,0,11,15,100,100,Resistant,Resistant,Resistant,Resistant,less than 20%,
CO/N=C(\C(=O)N[C@@H]1C(=O)N2C(C(=O)O)=C(CSc3nc(=O)c(=O)[nH]n3C)CS[C@H]12)c1csc(N)n1 [ceftriaxone],,,,,,,,,,,,,,,responded well until the medication was stopped
Amoxicillin/Clavulanate [Augmentin],Resistant,resistance,100,100,100,90,89,,,Resistant,Resistant,Susceptible,Susceptible,over 80%,
